The test system of one data set is SHSY5Y cells. The data set can be described thus: 6-hydroxydopamine-induced cell toxicity, XTT cell viability. The data set is classed as cell-based. As to conditions: for IC50: Homo sapiens, SH-SY5Y, 24 h, read-out: IC50 (cell viability protection). On the procedure:
SHSY5Y (obtained from ATCC) were grown at 37° C. under an atmosphere of 95% air and 5% CO2 in DMEM medium supplemented with 10% fetal bovine serum, 2 mM L-glutamine, 1000 U/ml penicillin, and 1 mg/ml streptomycin until 60-70% of confluence. Further, the cells were incubated with increasing concentrations of 6-hydroxydopamine. After 24 hours, and cells viability was assayed using the XTT (2,3-bis-(2-methoxy-4-nitro-5-sulfophenyl)-2H-tetrazolium-5-carboxanilide) method, according to the supplier instructions. […] The 50% decrease in cell survival was obtained at about 50 μM of 6-hydroxydopamine.
Cell viability as assayed following 24 h incubation with different concentrations of 6-hydroxydopamine in the absence (closed squares (▪)) or in the presence of VBIT-12 (15 μM, closed circles (●)) is shown.
Similarly, cells that were incubated with increasing concentrations of VBIT-12 in presence of either 30 or 50 μM of 6-hydroxydopamine that decreased cell viability by […], respectively, remained viable after 24 hours of the incubation. Cells viability is charted in FIG. 24C versus the concentrations of VBIT-12. Closed squares (▪) indicate control group without 6-hydroxydopamine, open circles (◯) indicates cells' viability when exposed to 30 μM of the 6-hydroxydopamine, and closed circles (●) indicate cells viability at 50 μM of the 6-hydroxydopamine.
Background: Formazan colour is commonly taken as a measure of viable cells.

A further data set has as its target T1, purified VDAC1 (Rattus norvegicus, UniProt Q9Z2L0).
T1 construct: rat liver mitochondria (5 mg/ml) in 10 mM Tris-HCl, pH 7.2, were incubated with 2% LDAO; from tissue; host or cells: rat liver mitochondria
The data set can be described thus: Microscale thermophoresis (MST) binding to purified VDAC1. Particulars: MST, purified VDAC1 133 nM, 20 min incubation; means±SD (n=3); read-out: VDAC1 binding affinities. A general note: In MST a laser heats a spot of the sample, and binding alters the fluorescence response.

The target of the next data set is VDAC1 (Homo sapiens, UniProt P21796). The data set can be described thus: Selenite-induced VDAC1 oligomerization by EGS cross-linking and immunoblot in HEK-293 cells (Method B). Particulars: HEK-293 cells, compound 2 h then selenite 15 μM 4 h; means±SD (n=3); read-out: VDAC1 oligomerization IC50. The data set is classed as cell-based. Further details: endogenous in cells; host or cells: HEK-293. On the procedure:
Appropriate test cells (2.5-3 mg/ml) in PBS, were harvested after the treatment and incubated with the cross-linking reagent EGS at a ratio of 100-300 μM for sample of 2-3 mg protein/ml concentration (pH 8.3) for 15 minutes. Protein concentration was determined according to Lowry assay. Samples (60-80 μg protein) were subjected to SDS-PAGE by a standard technique and immunoblotting was performed using anti-VDAC1 antibodies. Gels were electro-transferred onto nitrocellulose membranes for immuno-staining. The membranes were incubated with a blocking solution containing 5% non-fat dry milk and 0.1% Tween-20 in Tris-buffered saline, followed by incubation with monoclonal anti-VDAC1, anti-Cytochrome c, anti-AIF or anti-actin antibodies. Membranes were then incubated with HRP-conjugated anti-mouse or anti-rabbit IgG (1:10,000), serving as secondary antibodies. Antibody labeling was detected by chemiluminescence. To detect VDAC1 oligomers, membranes were treated with 0.1 M glycine, pH 2.0, prior to immunoblotting and washed several times with 0.1% Tween-20 in Tris-buffered saline. Quantitative analysis of immuno-reactive VDAC1 dimer, trimer and multimer bands was performed using FUSION-FX (Vilber Lourmat, France).
The closed circle (●) indicates VBIT-4 (compound of Formula 1), the open circle (◯) indicates compound of Formula 10, and an open square (□) indicates VBIT-3 (compound of Formula 2).
(§1) d. IC50 values of the tested compounds were derived from the obtained data. The results shown correspond to means±SD (n=3).
On the technique in general: Immunoblotting shows a protein as a band on a membrane.

Data set [1] can be described thus: Brain penetration after oral gavage, HPLC/MS of brain extracts. The data set is classed as in vivo, C57BL/6 mice. As to conditions: for concentration at 24 h: C57BL/6, mouse, brain, oral, 50 mg/kg, mouse, read-out: Compounds in brain extract. On the procedure: C57BL/6 mice ([…]) were used. The animals received treatments with either free compounds of Formulae 1 and 10, or encapsulated compounds, prepared according to the Examples 16 and 17. Doses as indicated in the Table 4 below were administered in phosphate-buffered saline (PBS) through an oral gavage. After 12 hours and 24 hours, randomly selected mice from each group were sacrificed, their brains collected and stored in −80° C. The concentrations of the compounds in the tissues were determined by HPLC/MS analysis.
Tissue samples were homogenized in phosphate-buffered saline solution, then diluted with acetonitrile to 50% v/v, centrifuged at 10,000 g for 10 minutes, and supernatants were analyzed. The compounds concentrations in the brain extracts were determined from calibration curves. The results were the averaged from 2 mice for each treatment group/time point.

The subject of data set [2] is 5XFAD transgenic mice with AD-like disease. The data set can be described thus: Radial-arm water maze learning and memory task in 5XFAD transgenic mice. The data set is classed as in vivo, mouse. Particulars: 5XFAD mice, 20 mg/kg in drinking water for 4 months, tested at six months of age.
Description: Animals at age two months were assigned to three groups: transgenic treated (TG-T, 8 males and 3 females), transgenic vehicle (TG-V, 8 males and 3 females), and wild type (WT, 10 males and 8 females).
Two-months old 5XFAD mice were provided with 0.9% of DMSO solution or VBIT-4 solution (20 mg/kg in 0.9% DMSO) in drinking water replaced with fresh solution three times a week in the first month and thereafter twice a week for additional 3 months.
When the mice reached the age of six months, a two-day radial-arm water maze (RAWM) trial was performed as described previously (Jennifer Alamed, et al, Nature Protocols 1, (2006) 1671-1679) to test the effect of VBIT-4 on learning and memory task. The RAWM containing six swim paths (arms) was used. The arms were extending out from an open central area with an escape platform located at the end of one arm (the goal arm). The goal arm location remained constant for a given mouse. On day 1, mice were trained for 15 trials (spaced over 3 h), with trials alternating between visible and hidden platforms. On day 2, mice were trained for 15 trials with the hidden platform.
Entry into an incorrect arm was scored as an error, and the times spent by the animal to find the platform were recorded. […] To examine the source of differences the post-hoc test of Bonferroni-type was used. […]
Data set [3] can be described thus: IC50 for several activities / effective range (activity not specified). Particulars: quoted for comparison with brain levels.
The next data set concerns HEK-293 cells. The data set can be described thus: Selenite-induced apoptosis, annexin V-FITC/PI staining and FACS, HEK-293 cells. The data set is classed as cell-based. Particulars: Homo sapiens, HEK293, compound 2 h then selenite 15 μM 4 h, means±SD (n=3). On the procedure:
The ability of the compounds of general Formulae (I), (Ia), (Ib), (Ic), (Id), (II) and (IIa) to inhibit apoptosis may be analyzed by annexin-V/propidium iodide (PI) staining and flow cytometry.
Cells, e.g. HeLa cells (2×10^5), untreated or treated with apoptosis-inducing reagents, were analyzed for apoptotic cell death using PI, annexin V-FITC and flow cytometer analysis. Cells were collected (1500×g for 10 min), washed, and resuspended in 200 μl binding buffer (10 mM HEPES/NaOH, pH 7.4, 140 mM NaCl, and 2.5 mM CaCl2). Annexin V-FITC was added according to the recommended Protocol (Enzo Life Sciences, Switzerland), and the cells were incubated in the dark for 15 min. Cells were then washed with binding buffer and resuspended in 200 μl binding buffer, to which PI was added immediately before flow cytometry analysis. At least 10,000 events were collected, recorded on a dot plot, and analyzed by the FACSCalibur™ flow cytometer software (BD Biosciences, Franklin Lakes, N.J.).
b. Additionally, the inhibition of selenite-induced apoptosis by the compounds as analyzed using annexin V-FITC/PI staining and FACS, presented in the FIG. 15c.
as §1

Like-named read-outs stand apart in the source and are kept apart here.

T1 sequence (Q9Z2L0 whole entry): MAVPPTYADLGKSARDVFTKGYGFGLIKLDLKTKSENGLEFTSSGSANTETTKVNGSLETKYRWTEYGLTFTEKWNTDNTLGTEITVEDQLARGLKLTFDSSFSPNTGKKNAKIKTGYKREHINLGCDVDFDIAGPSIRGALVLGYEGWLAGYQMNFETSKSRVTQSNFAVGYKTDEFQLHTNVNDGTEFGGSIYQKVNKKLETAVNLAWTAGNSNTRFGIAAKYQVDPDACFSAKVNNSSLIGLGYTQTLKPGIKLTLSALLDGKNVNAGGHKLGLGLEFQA
Sequence of VDAC1 (P21796 whole entry): as the sequence (Q9Z2L0 whole entry) above, with N55T, V129M, S160A, V227I counted along it
Description for purified VDAC1: To obtain quantitative parameters of this interaction and derive a dissociation constant, e.g. a microscale thermophoresis (MST) interaction assay may be performed. In this manner, dissociation values are derived from the curves showing the affinity of the compounds of the invention to VDAC.
Briefly, rat liver mitochondria (5 mg/ml) in 10 mM Tris-HCl, pH 7.2, were incubated with 2% LDAO at 0° C. for 20 min, followed by centrifugation (30 min, 14,000 g) and the obtained supernatant was loaded onto a dry celite:hydroxyapatite (2:1) column. VDAC1 was eluted with a solution containing 2% LDAO, 10 mM Tris-HCl, pH 7.2, 50 mM NaCl, and 20 to 22 mM NaH2PO4, with VDAC1 detection by Coomassie blue staining. The VDAC1-containing fractions were dialyzed against 10 mM Tris-HCl, pH 7.2, and subjected to a second chromatography step on a carboxymethyl-cellulose (CMC) column from which VDAC1 was eluted with a solution containing 10 mM Tris-HCl, pH 7.2, 0.1% LDAO and 500 mM NaCl, detected as above. The VDAC1-containing fractions were collected and used for VDAC1 channel conductance and MST assays.
MST analysis was performed using a NanoTemper Monolith NT.115 apparatus. […]
Purified VDAC1 (133 nM), labeled using the NanoTemper fluorescent protein-labeling Kit BLUE (Nano Temper technologies, Munich, Germany), according to the manufactory instructions, was incubated with increasing concentrations of the following tested compounds: compound of Formula 10 (AKOS-022), compound of Formula 2 (VBIT-3), or racemic compound of Formula 1 (VBIT-4). After 20 min of incubation, the samples (3-5 μL) were loaded into MST-grade glass capillaries (Monolith NT Capillaries), and the thermophoresis process was measured using the Monolith-NT115 apparatus.
Fmax and Fmin represent the maximal and minimal fluorescence, respectively and F the fluorescence measured in the presence of the tested compound.
VDAC1 binding affinities of tested compounds were calculated from the MST measurements.

Usually IC50 stands for the concentration that gives 50% inhibition. In the case of `O=C(O)CNC(=O)C1(Nc2ccccc2)CCN(Cc2cccc3ccccc23)CC1` [Formula 3], the “protection against 6-hydroxydopamine-induced decreased cell viability” value with SHSY5Y cells (15 μM VBIT-12, 24 h, different 6-hydroxydopamine concentrations) was “protected against the reduction of cell survival by all 6-hydroxydopamine concentration used”. Also, the half-inhibitory concentration (IC50) with SHSY5Y cells (30 μM 6-hydroxydopamine) is approximately 1 µM; in the data set on SHSY5Y cells (50 μM 6-hydroxydopamine), approximately 2 µM.
Turning to `O=C(CC(CO)N1CCN(c2ccc(OC(F)(F)F)cc2)CC1)Nc1ccc(Cl)cc1` (racemic) [Formula 1, N-(4-chlorophenyl)-4-hydroxy-3-(4-(4-(trifluoromethoxy)phenyl)-piperazin-1-yl)butanamide], the Kd at purified VDAC1 came out at 17 ± 5.3 µM. For the same compound, the concentration for half-maximal inhibition (IC50) on VDAC1 is 1.9 µM; in data set [3] it was 1 µM; with HEK-293 cells, 2.9 ± 0.12 µM. Further, the concentration at 24 h in data set [1] (50 mg/kg in PLGA nanoparticles, oral gavage) came to 190 ± 70 nM; in data set [1] (50 mg/kg oral gavage, free compound), 120 ± 20 nM. Further, the brain penetration entry in data set [1] (given orally, in solution or encapsulated in PLGA nano-particles) is on record as “reached the brain”. The “RAWM number of errors” value in data set [2] was “better than untreated TG”. In data set [2], the “RAWM total time spent” value is reported as “better than untreated TG”.

The record behind these values is patent US10787423B2, “Piperazine and piperidine derivatives, their synthesis and use thereof in inhibiting VDAC oligomerization, apoptosis and mitochondria dysfunction” (THE NATIONAL INSTITUTE FOR BIOTECHNOLOGY IN THE NEGEV LTD., priority 2015, dated 2020).
